The assay addresses Envelope glycoprotein gp160 (Human immunodeficiency virus 1, UniProt Q6QLK5). Description: inhibitors of HIV fusion peptide binding, primary screen, biochemical, uHTS, fluorescence dequenching (AID 1986).

We go through 1 compound from ChEMBL document CHEMBL1201862, “PubChem BioAssay data set” (2004).

Activity calls are given as the source filed them. No stated cut-off is given here; in the data, actives have a measured IC50 and inactives only a lower limit.

Sequence of Envelope glycoprotein gp160 (Q6QLK5 whole entry, the tested form may be a part): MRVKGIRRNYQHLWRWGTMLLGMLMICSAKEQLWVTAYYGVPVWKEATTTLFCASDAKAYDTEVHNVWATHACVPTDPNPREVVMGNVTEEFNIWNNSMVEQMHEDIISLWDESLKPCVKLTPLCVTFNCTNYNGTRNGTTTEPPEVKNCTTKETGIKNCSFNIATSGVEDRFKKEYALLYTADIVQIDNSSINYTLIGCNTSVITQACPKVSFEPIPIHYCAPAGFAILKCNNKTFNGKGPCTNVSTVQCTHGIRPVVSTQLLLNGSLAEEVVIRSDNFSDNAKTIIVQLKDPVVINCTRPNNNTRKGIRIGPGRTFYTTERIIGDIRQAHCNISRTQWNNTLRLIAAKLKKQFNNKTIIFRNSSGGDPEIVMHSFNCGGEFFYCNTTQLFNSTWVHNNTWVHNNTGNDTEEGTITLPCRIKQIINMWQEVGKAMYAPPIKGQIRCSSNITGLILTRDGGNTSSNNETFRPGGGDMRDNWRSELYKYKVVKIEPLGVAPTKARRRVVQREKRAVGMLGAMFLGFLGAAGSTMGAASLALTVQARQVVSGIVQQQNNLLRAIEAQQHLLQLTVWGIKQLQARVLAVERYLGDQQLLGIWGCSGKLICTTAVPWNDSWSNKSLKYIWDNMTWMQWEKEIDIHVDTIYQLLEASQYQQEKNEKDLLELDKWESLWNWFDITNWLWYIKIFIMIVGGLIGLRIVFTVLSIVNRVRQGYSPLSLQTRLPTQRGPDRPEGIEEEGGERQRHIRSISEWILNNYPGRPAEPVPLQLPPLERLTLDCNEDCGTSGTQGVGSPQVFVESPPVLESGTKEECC

In general, IC50 refers to the concentration needed to halve the response being measured. As for `CCOC(=O)C1=C(C)N=c2s/c(=C\c3ccc(OCC(=O)O)c(OC)c3)c(=O)n2C1c1ccc(OC)cc1` (stereo unspecified), the IC50 is 23.9 µM (active).
